In patent US6028197A, “Dibenzo[a,g]quinolizinium derivatives and the salts thereof” (Hanwha Corporation, priority 1998, dated 2000):

target: T1, sterol 14-reductase (Rattus norvegicus, UniProt A0ACM8Q6X4); experiment: Inhibition of sterol 14-reductase in rat liver microsomes; format: biochemical; conditions: Enzyme Activity (relative in vitro activity for sterol 14-reductase, IC50 class)
T1 construct: microsome which was used as an enzyme source of sterol 14-reductase; from tissue; host or cells: liver microsomes of male Sprague-Dawley rats fed lovastatin and cholestyramine
T1 sequence (A0ACM8Q6X4 1-418): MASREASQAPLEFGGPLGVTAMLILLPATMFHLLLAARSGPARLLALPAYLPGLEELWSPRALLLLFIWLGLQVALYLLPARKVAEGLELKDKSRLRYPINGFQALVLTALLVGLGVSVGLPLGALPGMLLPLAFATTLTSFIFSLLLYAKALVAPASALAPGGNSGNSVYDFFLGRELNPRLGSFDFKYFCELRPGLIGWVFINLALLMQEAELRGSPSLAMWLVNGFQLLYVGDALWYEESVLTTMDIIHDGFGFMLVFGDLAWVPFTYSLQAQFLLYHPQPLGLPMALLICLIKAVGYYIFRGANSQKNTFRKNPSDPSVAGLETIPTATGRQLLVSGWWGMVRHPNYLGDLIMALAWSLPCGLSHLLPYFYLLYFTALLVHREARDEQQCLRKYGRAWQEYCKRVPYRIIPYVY
Description: 20 Male Sprague-Dawley rats weighing from 150 to 250 g have been fed for 7 days with a diet containing 0.1% (w/w) Lovastatin and 5% (w/w) Cholestyramine. The animals were fasted for 12 hours before excising liver tissues and then sacrificed by decapitation at midnight. An aqueous solution containing 0.25M of sucrose was injected into the hepatic portal vein to remove all the blood within the liver, and then, the liver was excised. The liver was homogenated with two volumes of buffer solution A (0.1M potassium phosphate, 1 mM reduced glutathione, 0.5 mM EDTA, 20% (v/v) glycerol, pH 7.4) by repeating pestles over 10 times and then, centrifuged with 900×g for 5 minutes to give a supernatant. The supernatant was centrifuged with 12,000×g for 20 minutes. The supernatant obtained was ultracentrifuged with 105,000×g for 90 minutes to give a microsome which was used as an enzyme source of sterol 14-reductase. Assay for sterol 14-reductase was carried out as follows:
60 mmol of 4,4-dimethyl-5α-cholesta-7,14-dien-3β-ol and 5,6-dihydrodibenzo-[a,g]quinolizinium salts (compound no. 2) dissolved in DMSO were added to an assay mixture (total volume 1.0 ml) containing 2 mg of the microsomal protein, 2 mM of NADPH and 25 mg of glucose plus 20 units of glucose oxidase with preincubations under nitrogen at 37° C. for 4 min. unless otherwise specified to establish anaerobic condition. Buffer A (0.1M potassium phosphate buffer, pH 7.4, including 1 mM reduced glutathione, 0.5 mM EDTA, and 20% (v/v) glycerol) used for incubation had been equilibrated with nitrogen, and nitrogen was exchanged for air in all sealed reaction flasks prior to the start of incubations. Incubation of the complete mixture was carried out anaerobically in sealed flasks for 10 min at 37° C. unless otherwise indicated. Incubations were terminated by the addition of 1 ml of ethanolic KOH followed by heating under reflux for 10 min. Sterols were extracted four times with 4 ml of petroleum ether, and the solvent was evaporated to dryness under a nitrogen stream. The resulting residue was dissolved in 200-500 μl of n-hexane for quantification by GLC at high sensitive attenuation. The activity of sterol 14-reductase was determined with the amount of the substrate wherein the double bonds of 14-carbon were reduced (for the amount reduced by 1 mg of the microsome protein for 1 minute).

| SMILES | IC50 [µM] |
| --- | --- |
| C=C(COc1c(OC)ccc2c(CC)c3[n+](cc12)CCc1cc(OC)c(OC)cc1-3)C[Si](C)(C)C [Compound No. 44, 5,6-dihydro-2,3-dimethoxybenzo[a]-13-ethyl-10-methoxy-9-[(3-trimethylsilyl)propen-2-yl]oxybenzo[g]quinolizinium chloride] | > 100 |

same assay, conditions: read-out: Enzyme Activity (relative in vitro activity for sterol 14-reductase, IC50 class)

| SMILES | IC50 [µM] |
| --- | --- |
| CCc1c2[n+](cc3c(OCc4ccc(-c5ccccc5)cc4)c(OC)ccc13)CCc1cc3c(cc1-2)OCO3 [Compound No. 53, 5,6-dihydro-2,3-methylenedioxybenzo[a]-13-ethyl-10-methoxy-9-(4-phenyl)benzloxybenzo[g]quinolizinium iodide] | 10 to 100 |
| CCc1c2[n+](cc3c(OCc4ccc(C(C)(C)C)cc4)c(OC)ccc13)CCc1cc(OC)c(OC)cc1-2 [Compound No. 69, 5,6-dihydro-2,3-dimethoxybenzo[a]-9-[4-(tert-butyl)-benzyloxy]-13-ethyl-10-methoxybenzo[g]quinolizinium bisulfate] | 10 to 100 |
| CCc1c2[n+](cc3c(OCc4cc5c(cc4Cl)OCO5)c(OC)ccc13)CCc1cc(OC)c(OC)cc1-2 [Compound No. 40, 5,6-dihydro-2,3-dimethoxybenzo[a]-9-(6-chloro)-piperonyloxy-13-ethyl-10-methoxybenzo[g]quinolizinium chloride] | > 100 |
| CCCCCCCCCCCCOc1c(OC)ccc2c(CC)c3[n+](cc12)CCc1cc(OC)c(OC)cc1-3 [Compound No. 1, 5,6-dihydro-2,3-dimethoxybenzo[a]-9-dodecoxy-13-ethyl-10-methoxybenzo[g]quinolizinium chloride] | < 1 |
| CCOc1cc2c(cc1OCC)-c1c(CC)c3ccc(OC)c(OCc4c(F)c(F)c(C(F)(F)F)c(F)c4F)c3c[n+]1CC2 [Compound No. 57, 5,6-dihydro-2,3-diethoxybenzo[a]-9-(2,3,5,6-tetrafluoro-4-trifluoromethyl)benzyloxy-13-ethyl-10-methoxy-benzo[g]-quinolizinium chloride] | < 1 |
| CCc1c2[n+](cc3c(OCc4ccc(CS(=O)(=O)c5ccccc5)cc4)c(OC)ccc13)CCc1cc(OC)c(OC)cc1-2 [Compound No. 38, 5,6-dihydro-2,3-dimethoxybenzo[a]-13-ethyl-10-methoxy-9-[4-(phenylsulfonylmethyl)benzyloxy]benzo[g]-quinolizinium chloride] | 10 to 100 |
| CCc1c2[n+](cc3c(OCc4c(F)c(F)c(F)c(F)c4F)c(OC)ccc13)CCc1cc(O)c(O)cc1-2 [Compound No. 59, 5,6-dihydro-2,3-dihydroxybenzo[a]-13-ethyl-10-methoxy-9-(2,3,4,5,6-pentafluoro)benzyloxybenzo[g]quinolizinium chloride] | 10 to 100 |
| CCCCCCCCCCCCOc1c(OC)ccc2c(CC)c3[n+](cc12)CCc1cc2c(cc1-3)OCO2 [Compound No. 45, 5,6-dihydro-2,3-methylenedioxybenzo[a]-9-dodecoxy-13-ethyl-10-methoxybenzo[g]quinolizinium iodide] | 10 to 100 |
| CCc1c2[n+](cc3c(OCn4nnc5ccccc54)c(OC)ccc13)CCc1cc(OC)c(OC)cc1-2 [Compound No. 29, 5,6-dihydro-2,3-dimethoxybenzo[a]-9-(1H-benzo-triazol-1-yl)methoxy-13-ethyl-10-methoxybenzo[g]-quinolizinium chloride] | 10 to 100 |
| CCOc1cc2c(cc1OCC)-c1c(CC)c3ccc(OC)c(OCc4c(F)c(F)c(F)c(F)c4F)c3c[n+]1CC2 [Compound No. 56, 5,6-dihydro-2,3-diethoxybenzo[a]-13-ethyl-10-methoxy-9-(2,3,4,5,6-pentafluoro)benzyloxybenzo[g]quinolizinium chloride] | < 1 |

Continued, values first:

| IC50 [µM] | SMILES |
| --- | --- |
| > 100 | CCc1c2[n+](cc3c(OCc4ccc(OC)cc4)c(OC)ccc13)CCc1cc(OC)c(OC)cc1-2 [Compound No. 22, 5,6-dihydro-2,3-dimethoxybenzo[a]-13-ethyl-10-methoxy-9-(4-methoxy)benzyloxybenzo[g]quinolizinium chloride] |
| 10 to 100 | CCc1c2[n+](cc3c(OCc4ccc(Cl)nc4)c(OC)ccc13)CCc1cc(OC)c(OC)cc1-2 [Compound No. 71, 5,6-dihydro-2,3-dimethoxybenzo[a]-9-(6-chloropyridine-3-yl)methoxy-13-ethyl-10-methoxybenzo-[g]quinolizinium nitrate] |
| > 100 | CCc1c2[n+](cc3c(OCc4cc(C)ccc4C)c(OC)ccc13)CCc1cc(OC)c(OC)cc1-2 [Compound No. 15, 5,6-dihydro-2,3-dimethoxybenzo[a]-9-(2,5-dimethyl)benzyloxy-13-ethyl-10-methoxybenzo[g]quinolizinium chloride] |
| 10 to 100 | CCc1c2[n+](cc3c(OCc4ccccc4C(F)(F)F)c(OC)ccc13)CCc1cc(OC)c(OC)cc1-2 [Compound No. 20, 5,6-dihydro-2,3-dimethoxybenzo[a]-13-ethyl-10-methoxy-9-(2-trifluoromethyl)benzyloxybenzo[g]quinolizinium chloride] |
| 10 to 100 | CCc1c2[n+](cc3c(OCc4ccc(F)cc4C(F)(F)F)c(OC)ccc13)CCc1cc(OC)c(OC)cc1-2 [Compound No. 4, 5,6-dihydro-2,3-dimethoxybenzo[a]-13-ethyl-9-[4-fluoro-2-(trifluoromethyl)benzyloxy]-10-methoxybenzo[g]-quinolizinium chloride] |
| 10 to 100 | CCc1c2[n+](cc3c(OCc4cccc(Cl)c4)c(OC)ccc13)CCc1cc(OC)c(OC)cc1-2 [Compound No. 18, 5,6-dihydro-2,3-dimethoxybenzo[a]-9-(3-chloro)-benzyloxy-13-ethyl-10-methoxybenzo[g]quinolizinium chloride] |
| 10 to 100 | CCc1c2[n+](cc3c(OCc4ccc(OC(F)(F)F)cc4)c(OC)ccc13)CCc1cc(OC)c(OC)cc1-2 [Compound No. 42, 5,6-dihydro-2,3-dimethoxybenzo[a]-13-ethyl-10-methoxy-9-(4-trifluoromethoxy)benzyloxybenzo[g]quinolizinium chloride] |
| > 100 | CCc1c2[n+](cc3c(OCc4ccc(C)cc4C)c(OC)ccc13)CCc1cc(OC)c(OC)cc1-2 [Compound No. 28, 5,6-dihydro-2,3-dimethoxybenzo[a]-9-(2,4-dimethyl)benzyloxy-13-ethyl-10-methoxybenzo[g]quinolizinium chloride] |
| 10 to 100 | CCOc1cc2c(cc1OCC)-c1c(CC)c3ccc(OCC)c(OCc4ccc(Cl)nc4)c3c[n+]1CC2 [Compound No. 65, 5,6-dihydro-2,3-diethoxybenzo[a]-9-(6-chloropyridine-3-yl)methoxy-10-ethoxy-13-ethylbenzo[g]-quinolizinium chloride] |
| > 100 | CCc1c2[n+](cc3c(OCc4cccc([N+](=O)[O-])c4C)c(OC)ccc13)CCc1cc(OC)c(OC)cc1-2 [Compound No. 24, 5,6-dihydro-2,3-dimethoxybenzo[a]-13-ethyl-10-methoxy-9-(2-methyl-3-nitro)benzyloxybenzo[g]quinolizinium chloride] |
| 10 to 100 | CCc1c2[n+](cc3c(OCc4ccc(Cl)nc4)c(OC)ccc13)CCc1cc3c(cc1-2)OCO3 [Compound No. 54, 5,6-dihydro-2,3-methylenedioxybenzo[a]-9-(6-chloropyridinyl-3-yl)methoxy-13-ethyl-10-methoxybenzo[g]quinolizinium iodide] |
